From PubChem BioAssay (NCI) come the findings set out here.

SMILES strings stand for the structures. Several values for one entry are separate records, joined by “and”; a condition that tells them apart may be missing. Identical values can stand only once.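 96-well plates; 48 h exposure; 5 concentrations. Endpoints by linear interpolation between flanking doses. Not reached: highest tested concentration assigned. Here, GI50 denotes the concentration required for 50% inhibition of growth. TGI: concentration producing complete growth inhibition.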 Bounds are passed on as bounds.

Common to all, as to experiment: NCI-60 cell line screen, 48 h
The test system of test [1] is RPMI-8226 leukemia.
Test [2] has as its system MDA-MB-435.
The subject of test [3] is OVCAR-8 ovarian.
For test [4], the system named is HT29 colon.
Test [5] has as its system MCF7 breast.
For test [6], the system named is SK-OV-3 ovarian.
For test [7], the system named is HCC-2998 colon.
Test [8] deals with UO-31 renal.
Test [9] has as its system SN12C renal.
Test [10] deals with RXF 393 renal.

As to `NC(=NC1CCCCCCC1)c1ccc(N2CCN(c3ccc(C(N)=NC4CCCCCCC4)cc3)CC2)cc1`, the GI50 in [1] was 25.8 µM; in test [2], 5.25 µM; in [3], 4.9 µM; in test [4], 4.88 µM; in test [5], 5.77 µM; in [6], 15.2 µM. Also, the GI50 in [7] was 14.4 µM; in test [8], 48.3 µM; in [9], 7.62 µM. The TGI was > 100 µM in test [1]; 17.9 µM in test [2]; 30 µM in [3]; 23.1 µM in test [4]; > 100 µM in test [5]; 34.9 µM in [6]. For the same compound, the TGI in test [7] is 48 µM; in test [8] it was > 100 µM; in test [9], 69.3 µM.

Consider `O=c1c2cccc3cccc(c4oc5c6cccc7cccc(c(=O)c5c14)c76)c32`, for which the TGI was 24.1 µM in [1]; 16.1 µM in test [3]; 19.6 µM in test [4]; > 31.6 µM in test [6]; 16.6 µM in test [10]; > 31.6 µM in test [7]. Also, the TGI in test [8] came out at 23.1 µM; in test [9] it was 18.2 µM.

Take `CCN(CCNc1ccc(C)c2sc3cc(Cl)ccc3c(=O)c12)CC(C)O` (stereo not given): the GI50 in test [1] is 1.71 µM; in test [2], 1.64 µM; in [4], 1.65 µM; in [5], 1.5 µM; in test [6], 1.76 µM; in test [7] it was 2.18 µM. Further, the GI50 in test [9] was 2.76 µM. Moreover, the TGI in test [1] was 3.67 µM; in [2], 3.27 µM; in test [4] it was 3.17 µM; in test [5], 3.01 µM; in test [6], 3.44 µM; in test [7] it was 3.62 µM. The same compound came in with a TGI in test [9] of 10.5 µM.

For the compound `O=C1/C(=C/c2ccc3c(c2)OCO3)CCC1CN1CCOCC1` (stereo not given), the TGI in test [1] stood at 1.73 µM; in test [2], 40.6 µM; in [3], 21.4 µM; in test [4], 38.5 µM; in test [6], 32.9 µM; in test [10], 24.7 µM. In addition, the TGI came out at 17.4 µM in [7], 29.2 µM in [8] and 12 µM in test [9].

As to `N#C/C(=C1\NN=C(N)C(c2ccc(Cl)cc2)=C1O)c1ccc(Cl)cc1`, the TGI in test [1], in test [3], in [4], in test [6], in [10] and in test [7] was > 100 µM each time. Moreover, the TGI in test [8] and in test [9] was > 100 µM each time.

In the case of `Cc1cc(C)c2c(c1)Nc1ccccc1P2c1ccccc1` (stereo not given), the TGI was 26.7 µM in test [1]; > 100 µM in [3]; > 100 µM in test [4]; > 100 µM in [6]; > 100 µM in test [10]; 60 µM in [7]. Also, the TGI in [8] was 57.8 µM; in [9], > 100 µM.

For the compound `COc1ccc(-c2cnnn2-c2cc(OC)c3c(c2)OCO3)cc1`, the GI50 was 0.256 µM in test [1]; 0.0202 µM in [2]; 0.304 µM in test [3]; 0.0454 µM in test [4]; 0.0463 µM in test [5]; 0.348 µM in test [6]. For the same compound, the GI50 in test [7] is 0.307 µM; in test [8], 1.1 µM; in test [9], 0.658 µM. Besides, the TGI in [1] was > 100 µM; in test [2] it was 0.0512 µM; in [3], > 100 µM; in test [5], > 100 µM; in [6] it was > 100 µM; in test [8], > 100 µM. Moreover, the TGI in test [9] was > 100 µM.

Consider `Cc1cccc(NC(=O)c2cc3cc(N=Nc4ccccc4Cl)ccc3oc2=O)c1`, for which the TGI was > 100 µM in test [1]; > 100 µM in test [3]; > 100 µM in test [4]; > 100 µM in test [6]; 83.2 µM in [10]; 70.4 µM in [7]. Besides, the TGI was 55.7 µM in [8] and > 100 µM in test [9].

`COC(C(=O)C(O)C(C)O)C1Cc2cc3cc(OC4CC(OC(C)=O)C(OC5CC(O)C(OC)C(C)O5)C(C)O4)cc(O)c3c(O)c2C(=O)C1OC1CC(OC2CC(OC3CC(C)(O)C(OC(=O)C(C)C)C(C)O3)C(O)C(C)O2)C(O)C(C)O1` (stereo not given): the TGI is 0.202 µM and 0.14 µM in test [1]; 0.21 µM in test [2]; 0.991 µM and 3.48 µM and 2.1 µM in test [4]; 0.327 µM and < 0.215 µM in test [5]; 4.1 µM and 5.22 µM in test [8]. Moreover, the GI50 was 0.0465 µM in test [5]; 0.0217 µM and 0.0423 µM in [6]; 0.399 µM and 0.46 µM in test [8].

For the compound `Cc1ccc(NC(=O)c2cc3ccccc3c(N=Nc3ccccc3O)c2O)c(C)c1`, the TGI is 11.1 µM in [1]; 3.7 µM in test [3]; 13.8 µM in test [4]; 13.7 µM in [5]; 16.7 µM in test [6]; 19.4 µM in test [10]. In test [7], the TGI was 18.7 µM.

`C/C(=C\c1ccn(-c2ccc(N)c(F)c2)n1)[C@@H]1C[C@@H]2O[C@]2(C)CCC[C@H](C)[C@H](O)[C@@H](C)C(=O)C(C)(C)[C@@H](O)CC(=O)O1`: the GI50 in test [1] is 0.00955 µM; in [3], 0.0239 µM; in test [4] it was 0.00756 µM; in [5], 0.00601 µM; in test [6], 0.0262 µM; in test [10] it was 0.0119 µM. The GI50 in test [7] was 0.0287 µM; in [8], 0.0982 µM; in test [9], 0.0389 µM. The TGI in test [1] was > 25.4 µM; in test [3], > 50 µM; in test [4] it was > 15.9 µM; in test [5] it was > 50 µM; in test [6] it was > 50 µM; in test [10], 0.109 µM. Besides, the TGI in test [7], in test [8] and in test [9] was > 50 µM each time.

As for `NC(=O)c1oc([N+](=O)[O-])c(-c2ccccc2)c1-c1ccccc1`, the TGI was 28.7 µM in [2]; 68.2 µM in [3]; > 100 µM in [4]; > 100 µM in [5]; > 100 µM in test [6]; > 100 µM in [10]. The figures for the TGI in test [8] and in test [9] were 52.2 µM and 5.09 µM, respectively.
